Experimental data from US12497515B2, “Fluorogenic pH-sensitive compounds and their methods of use” (LIFE TECHNOLOGIES CORPORATION, priority 2020, dated 2025).
One block for each compound: values may come before it.

What was measured:
Jurkat cells [1] = assay: Apoptosis control experiments (CYQUANT Direct, PRESTOBLUE HS, CELLEVENT Caspase green); type: cell-based; conditions: 2 uM overnight
Description: In this study, Jurkat cells were grown in 0.1% DMSO vehicle control or 2 uM camptothecin overnight in normal cell culture conditions then harvested, counted, washed, labeled, and resuspended at matched total cell number at 2×10^6 cells per mL in complete culture medium and dispensed 100 uL (200,000 cells) per well (n=8 per measurement) before adding the indicated reagents for 1 hour. […] The apoptosis indicator CELLEVENT Caspase green (Thermo Fisher Scientific, Waltham, MA) was also added to the two samples matched in total cells per mL along with NUCBLUE Live (Thermo Fisher Scientific, Waltham, MA), and cells plated at 100,000 cells per well for HCA quantification on the […] CX5.

[2] = pKa of the free compound (pH profile of fluorescence intensity); type: physicochemical; conditions: series of pH buffers
Description: (§1) FIG. 6 provides the pH profile of fluorescence intensity of Compound C at room temperature. Fluorescence was measured using 636 nm ex, 654 nm em, with 5 nm bandpass. Solutions were diluted to 5 uM with a series of pH buffers in triplicate in a 96-well clear-bottom black walled plate. Samples were measured on a Tecan Infinite M100 plate reader via top-read. RFU=relative fluorescence units.
as §1, with “FIG. 7” for “FIG. 6”, “Compound E” for “Compound C”, “with” for “with a series of”
Fluorescence was measured using 636 nm excitation wavelength (ex), 654 nm emission wavelength (em), with 5 nm bandpass filter. Solutions were diluted to 5 uM with a series of pH buffers (see Table 3) in triplicate in a 96-well clear-bottom black walled plate. Samples were measured on a Tecan Infinite M100 plate reader via top-read.
Fluorescence was measured using 636 nm ex, 654 nm em, with 5 nm bandpass. Solutions were diluted to 5 uM with pH buffers in triplicate in a 96-well clear-bottom black walled plate. Samples were measured on a Tecan Infinite M100 plate reader via top-read.

[3] = pH response kinetics (ring opening, absorbance at 637 nm); type: physicochemical; conditions: for pH response kinetics: stock in phosphate buffer pH 7.4 mixed with phosphate buffer pH 3.13, room temperature
Description: The kinetics of the ring opening of Compound A, Compound C, and Compound H were studied by measuring absorbance changes at 637 nm (absorption maxima of the ring-opening states) with UV-Vis spectroscopy. Stock solutions of the three dyes were prepared in pH 7.4 phosphate buffer with concentration of 1.8 mM. […] Stock solutions (10 μL) containing the dyes (1.8 mM) in phosphate buffer (pH 7.4) were diluted 300 times with phosphate buffer (pH 3.13) to a final concentration of […] at pH 3.13. The absorption changes were recorded at room temperature at 637 nm.

RAW macrophages [4] = assay: Efferocytosis of labeled apoptotic Jurkat cells; type: cell-based; conditions: incubated with RAW macrophages 1-3 hours, 4× and 10×
Description: FIGS. 43-44 show the efferocytosis from apoptotic cells with Compound C. In this study, Jurkat cells were grown in 0.1% DMSO control or 2 uM camptothecin overnight in normal cell culture conditions then harvested, counted, washed, labeled and resuspended per product description in complete culture medium at matched density before adding to RAW macrophages for assays of efferocytosis, or the phagocytosis of apoptotic cells.

Jurkat cells [5] = assay: Toxicity and turn-on response of labeled cells (PRESTOBLUE Cell Health Assay, Cy5 imaging); type: cell-based
Description: In this study, healthy Jurkat cells were grown and harvested in normal cell culture conditions, washed, counted, labeled and resuspended per product description in complete culture medium, and incubated overnight before testing for cell health and number with the PRESTOBLUE Cell Health Assay (Thermo Fisher Scientific, Waltham, MA). Cells with Compound C were, in parallel determinations, resuspended in the external reference pH buffer indicated and imaged on an EVOS M7000 for signal in the Cy5 channel from labeled cells at extracellular pH 4.5 (FIG. 42A, in red) and 7.5 (FIG. 42A, Inset). FIG. 42B is a graph showing control (left side) and compound C (right side).

RAW macrophages [6] = assay: Phagocytosis of CD4 opsonized Jurkat cells labeled with compound; type: cell-based; conditions: incubated with RAW macrophages 1-3 hours, 10×
Description: In this study, Jurkat cells were grown as normal in complete medium then harvested, counted, washed, labeled, and resuspended per product description in complete culture medium before splitting into control and CD4 antibody treated samples. In brief, the cells were resuspended in PBS and labeled with either BSA control or CD4 antibody at 2 ug/mL for one hour at room temperature before washing 2× in PBS and adding to RAW macrophages.

SMILES: CC[C@@]1(O)C(=O)OCc2c1cc1n(c2=O)Cc2cc3ccccc3nc2-1 [Camptothecin, camptothecin]
apoptosis, intracellular caspase activity (CELLEVENT Caspase green) (Jurkat cells [1]): substantial induction of apoptosis
live cell number (CYQUANT Direct) (Jurkat cells [1]): fewer live cells
overall vitality (PRESTOBLUE HS) (Jurkat cells [1]): decrease in overall vitality

SMILES: CC1(C)C=C(CS(=O)(=O)O)c2cc3c(c4c2N1CCC4)Oc1c(cc2c4c1CCCN4C(C)(C)C=C2CS(=O)(=O)O)C31c2c(Cl)ccc(Cl)c2C(=O)N1CCN1CCN(C(=O)CCOCCOCCOCCOCCC(=O)ON2C(=O)CCC2=O)CC1 [Compound A]
pKa [2]: 5.2
absorbance as share of the expected maximum value (A=0.93) ([3]; after 3600 seconds (60 minutes) at pH 3.13): 5%
absorbance at 637 nm ([3]; after 3600 seconds (60 minutes) at pH 3.13, 6.6 μM): 0.05
pH response kinetics [3]: slow

SMILES: CC1(C)C=C(CS(=O)(=O)O)c2cc3c(c4c2N1CCC4)Oc1c(cc2c4c1CCCN4C(C)(C)CC2CS(=O)(=O)O)C31c2c(Cl)ccc(Cl)c2C(=O)N1NC(=O)CCOCCOCCOCCOCCC(=O)Oc1c(F)c(F)cc(F)c1F (centres unmarked) [Compound B]
pKa [2]: 3.7

SMILES: CC1(C)C=C(CS(=O)(=O)O)c2cc3c(c4c2N1CCC4)Oc1c(cc2c4c1CCCN4C(C)(C)C=C2CS(=O)(=O)O)C31c2c(Cl)ccc(Cl)c2C(=O)N1OCCOCCOCCOCCC(=O)Oc1c(F)c(F)cc(F)c1F [Compound C]
efferocytosis signal, camptothecin treated vs control labeled Jurkat cells (RAW macrophages [4]): signal preferentially appearing from the camptothecin treated samples
toxicity to labeled cells vs sham labeled control (Jurkat cells [5]; Jurkat cells, overnight, PRESTOBLUE): little toxicity
turn-on response of labeled cells (Jurkat cells [5]; extracellular pH 4.5 vs 7.5, Cy5 channel): large fold turn-on response
pKa [2]: 4.87
absorption at 637 nm (A) ([3]; immediately after mixing pH 7.4 stock into pH 3.13 buffer, 6.6 μM, maximum, kept constant): 0.93
pH response kinetics [3]: fast
phagocytosis signal, CD4 antibody treated vs control labeled Jurkat cells (RAW macrophages [6]): signal preferentially appearing from the CD4 treated samples

Continued, in another order:

pKa [2]: 4.3
SMILES: CC1(C)C=C(CS(=O)(=O)O)c2cc3c(c4c2N1CCC4)Oc1c(cc2c4c1CCCN4C(C)(C)CC2CS(=O)(=O)O)C31c2c(Cl)c(Cl)c(Cl)c(Cl)c2C(=O)N1NC(=O)CCOCCOCCOCCOCCC(=O)Oc1c(F)c(F)cc(F)c1F (centres unmarked) [Compound D]

pKa [2]: 4.67
SMILES: CC1(C)C=C(CS(=O)(=O)O)c2cc3c(c4c2N1CCC4)Oc1c(cc2c4c1CCCN4C(C)(C)C=C2CS(=O)(=O)O)C31c2c(Cl)c(Cl)c(Cl)c(Cl)c2C(=O)N1OCCOCCOCCOCCC(=O)Oc1c(F)c(F)cc(F)c1F [Compound E]

pKa [2]: 5.5
SMILES: CC1(C)C=C(CS(=O)(=O)O)c2cc3c(c4c2N1CCC4)Oc1c(cc2c4c1CCCN4C(C)(C)C=C2CS(=O)(=O)O)C31c2c(Cl)ccc(Cl)c2C(=O)N1OCC(=O)Oc1c(F)c(F)cc(F)c1F [Compound F]

pKa [2]: 6.5
SMILES: CC(C)(ON1C(=O)c2c(Cl)ccc(Cl)c2C12c1cc3c4c(c1Oc1c2cc2c5c1CCCN5C(C)(C)C=C2CS(=O)(=O)O)CCCN4C(C)(C)C=C3CS(=O)(=O)O)C(=O)Oc1c(F)c(F)cc(F)c1F [Compound G]

pKa [2]: 5.2
SMILES: CC1(C)C=C(CS(=O)(=O)O)c2cc3c(c4c2N1CCC4)Oc1c(cc2c4c1CCCN4C(C)(C)C=C2CS(=O)(=O)O)C31c2c(Cl)ccc(Cl)c2C(=O)N1CCOCCOCCOCCOCCC(=O)Oc1c(F)c(F)cc(F)c1F [Compound H]
absorbance as share of the expected maximum value (A=0.93) ([3]; after 6000 seconds (100 minutes) at pH 3.13): 5%
absorbance at 637 nm ([3]; after 6000 seconds (100 minutes) at pH 3.13, 6.6 μM): 0.05
pH response kinetics [3]: slow
